Read-outs that look alike come from different tables or passages of the source.
Columns and labels:
[1] = target: immunoproteasome LMP7/B5i subunit (Homo sapiens, UniProt P28062); test: Caliper-based proteasome enzymatic activity assay, LMP7; assay type: biochemical; conditions: human recombinant immunoproteasome 0.3 nM, FAM-labeled peptide substrate 1 μM, rt 3 h; read-out: LMP7 subunit IC50
[2] = target: constitutive proteasome β5c unit (Homo sapiens, UniProt P28074); test: Caliper-based proteasome enzymatic activity assay, β5c; assay type: biochemical; conditions: human recombinant constitutive proteasome 0.3 nM, FAM-labeled peptide substrate 1 μM, rt 3 h; read-out: β5c subunit IC50
[3] = target: immunoproteasome LPM2/β1i subunit (Homo sapiens, UniProt P28065); test: Caliper-based proteasome enzymatic activity assay, LMP2; assay type: biochemical; conditions: human recombinant immunoproteasome 0.3 nM, FAM-labeled peptide substrate 1 μM, rt 2 h
PBMC/LMP7 [4] = target: T1, PBMC/LMP7 (Homo sapiens, UniProt P28062); test: Proteasome-Glo inhibition of proteasome activity in cells, PBMC/LMP7; assay type: cell-based; conditions: 2 h incubation at 37° C.
Protocol: (§1) The cell-based effects of a compound described herein on the immunoproteasome were determined by measuring inhibition of proteasome activity in cells using the Proteasome-Glo™ Cell-Based Reagent (Promega, Madison WI). The Proteasome-Glo™ assay contains a specific luminogenic proteasome substrate in a buffer optimized for cell permeabilization, proteasome activity, and luciferase activity. For the chymotrypsin-like activity (LMP7 and β5c), the peptide substrate is Suc-LLVY-aminoluciferin (Succinyl-leucine-leucine-valine-tyrosine-aminoluciferin). Cleavage of the substrate by proteasome results in luminescent signal which is proportional to the proteasome activity. The cell line THP-1 (a monocytic leukemia cell line enriched in immunoproteasome), the cell line HT-29 (a colorectal adenocarcinoma cell line enriched in constitutive proteasome), and primary human peripheral blood mononuclear cells (PBMC) were used to assess proteasome activity. Cells were seeded in a 96-well plate at 10,000 cells per well in RPMI 1640 high glucose medium with 10% fetal bovine scrum (FBS). Compound dilutions were added to cells starting at a concentration of 5 uM and decreasing in tripling dilutions. The final DMSO concentration was 1%. The concentration range was adjusted as needed for compounds of different potencies. The cells treated with compounds were incubated for 2 h at 37° C. in 5% CO2. At the end of the 2 hour incubation period, cells were transferred to white 384 well assay plates. 20 uL of Proteasome-Glo™ Reagent was added to each well and incubated for 10 minutes at rt. The plate was read in the Analyst HT instrument (Molecular Devices, Sunnyvale, CA) using luminescence mode. The percent inhibition of activity was plotted as a function of log compound concentration. The IC50 was then calculated for each compound using Prism software from GraphPad Software Inc. (San Diego, CA).

HT29/B5c [5] = target: T2, HT29/B5c (Homo sapiens, UniProt P28074); test: Proteasome-Glo inhibition of proteasome activity in cells, HT29/B5c; assay type: cell-based; conditions: HT-29 cells, 2 h incubation at 37° C.
Protocol: as §1

PBMC/LMP2 [6] = target: T3, PBMC/LMP2 (Homo sapiens, UniProt P28065); test: Proteasome-Glo inhibition of proteasome activity in cells, PBMC/LMP2; assay type: cell-based; conditions: 2 h incubation at 37° C.
PBMC/LMP7 [7] = target: T1, PBMC/LMP7; test: Durability of binding in cells, wash-out assay, PBMC/LMP7; assay type: cell-based; conditions: 2 h incubation, inhibitor washout
Protocol: (§2) The durability of binding of proteasome inhibitors was assessed in cells using wash-out assays and the Proteasome-Glo™ Reagent kit. THP-1 cells. HT-29 cells, or PBMC were incubated with an 8-fold dilution series of inhibitor for 2 h. Following 2 h of incubation, cells were washed using 3 occasions of centrifugation followed by resuspension in culture medium. Following inhibitor washout, cells were returned to culture for either 30 minutes, 4 h, or 18 h. Cells were then transferred to white 384 plates, and 20 uL of Proteasome-Glo™ Reagent was added to each well for 10 minutes. Plates were then read on an Analyst HT plate reader using luminescence mode. The percent inhibition of activity was plotted as a function of log compound concentration. The IC50 was then calculated for each compound using Prism software from GraphPad.

HT29/B5c [8] = target: T2, HT29/B5c; test: Durability of binding in cells, wash-out assay, HT29/B5c; assay type: cell-based; conditions: 2 h incubation, inhibitor washout
Protocol: as §2

PBMC/LMP2 [9] = target: T3, PBMC/LMP2; test: Durability of binding in cells, wash-out assay, PBMC/LMP2; assay type: cell-based; conditions: 2 h incubation, inhibitor washout
Protocol: as §2

[10] = tested on: multiple myeloma cell lines and primary patient tumor cells; conditions: including those resistant to conventional and novel prior therapies; cited from earlier work
Th1/17 differentiation [11] = conditions: human; cited from earlier work
Th1/17 differentiation [12] = conditions: mouse; cited from earlier work
[13] = tested on: murine collagen-induced arthritis; conditions: cited from earlier work
MRL/lpr lupus model = conditions: cited from earlier work
[14] = tested on: murine DSS-induced colitis model; conditions: cited from earlier work
[15] = tested on: Hashimoto's thyroiditis model; conditions: autoantibody-driven Hashimoto's thyroiditis model; cited from earlier work
prostate PC-3 cell line = conditions: PC-3 cell line in vitro; cited from earlier work
tumor growth = conditions: in vivo; cited from earlier work

## CC(C)C=C(C#N)C(=O)N1CCC[C@@H]1COC[C@H](NC(=O)c1cc(Cl)ccc1Cl)C(=O)N[C@@H](Cc1ccccc1)B(O)O [Example 14, ((R)-1-((S)-3-(((R)-1-(2-cyano-4-methylpent-2-enoyl)pyrrolidin-2-yl)methoxy)-2-(2,5-dichlorobenzamido)propanamido)-2-phenylethyl)boronic acid]
[1]
  IC50: 0.0017 µM
[2]
  IC50: 0.0024 µM
[3]
  IC50: 0.138 µM
PBMC/LMP7 [4]
  IC50: 0.031 µM
HT29/B5c [5]
  IC50: 0.06 µM
PBMC/LMP2 [6]
  IC50: 0.274 µM
PBMC/LMP7 [7]; 30 min in culture
  IC50: 0.05 µM
PBMC/LMP7 [7]; 4 hr in culture
  IC50: 0.093 µM
PBMC/LMP7 [7]; 18 hr in culture
  IC50: 0.146 µM
HT29/B5c [8]; 30 min in culture
  IC50: 0.082 µM
HT29/B5c [8]; 4 hr in culture
  IC50: 0.087 µM
HT29/B5c [8]; 18 hr in culture
  IC50: 1.85 µM
PBMC/LMP2 [9]; 30 min in culture
  IC50: 0.027 µM
PBMC/LMP2 [9]; 4 hr in culture
  IC50: 0.505 µM
PBMC/LMP2 [9]; 18 hr in culture
  IC50: 2.96 µM

## CC1=C(C(=O)N[C@H](C)C(=O)N[C@@H](Cc2c[nH]c3ccccc23)C(=O)N[C@@H](Cc2ccccc2)C(=O)[C@@]2(C)CO2)Cc2ccccc21 [PR-924]
[10]
  growth of multiple myeloma cell lines and primary patient tumor cells: inhibit growth

## COc1ccc(C[C@H](NC(=O)[C@H](C)NC(=O)CN2CCOCC2)C(=O)N[C@@H](Cc2ccccc2)C(=O)[C@@]2(C)CO2)cc1 [PR-957]
Th1/17 differentiation [11]
  Th1/17 differentiation: potently block
Th1/17 differentiation [12]
  Th1/17 differentiation: potently block
[13]
  disease activity: significantly inhibit disease activity
MRL/lpr lupus model
  disease progression: prevented disease progression
  plasma cell numbers and anti-dsDNA IgG levels: reduced plasma cell numbers and anti-dsDNA IgG levels
[14]
  inflammation and tissue destruction: reduced inflammation and tissue destruction
[15]
  efficacy: efficacious

## CCCCCCC(=O)N[C@@H](C)C(=O)N[C@@H](CC(C)C)C(=O)[C@@]1(CO[Si](C)(C)C(C)(C)C)CO1 [UK-101]
Prostate PC-3 cell line
  apoptosis: induced apoptosis
Tumor growth
  tumor growth: significantly suppressed tumor growth

Reference: patent US12312370B2, “Immunoproteasome inhibitors” (Principia Biopharma Inc., priority 2017, dated 2025)
